7 molecules from ChEMBL document CHEMBL5550090, “Synthesis and biological evaluation of 1H-pyrrolo[3,2-g]isoquinolines” (Bioorg Med Chem, 2024) can be followed below.

Experiment [1] deals with Dual specificity protein kinase CLK1 (Mus musculus) (UniProt P22518). Kind of experiment: Inhibition of recombinant mouse CLK1 expressed in bacteria assessed as enzyme residual activity using GRSRSRSRSRSR as substrate at 1 uM incubated for 30 mins in presence of ATP by ADP-Glo kinase assay.
For the next experiment, the system named is HCT-116. Kind of experiment: cells. The following applies: Homo sapiens, HCT-116, 48 h.
The target in experiment [2] is T1, Serine/threonine-protein kinase haspin (Homo sapiens, UniProt Q8TF76).
T1 sequence (Q8TF76 whole entry): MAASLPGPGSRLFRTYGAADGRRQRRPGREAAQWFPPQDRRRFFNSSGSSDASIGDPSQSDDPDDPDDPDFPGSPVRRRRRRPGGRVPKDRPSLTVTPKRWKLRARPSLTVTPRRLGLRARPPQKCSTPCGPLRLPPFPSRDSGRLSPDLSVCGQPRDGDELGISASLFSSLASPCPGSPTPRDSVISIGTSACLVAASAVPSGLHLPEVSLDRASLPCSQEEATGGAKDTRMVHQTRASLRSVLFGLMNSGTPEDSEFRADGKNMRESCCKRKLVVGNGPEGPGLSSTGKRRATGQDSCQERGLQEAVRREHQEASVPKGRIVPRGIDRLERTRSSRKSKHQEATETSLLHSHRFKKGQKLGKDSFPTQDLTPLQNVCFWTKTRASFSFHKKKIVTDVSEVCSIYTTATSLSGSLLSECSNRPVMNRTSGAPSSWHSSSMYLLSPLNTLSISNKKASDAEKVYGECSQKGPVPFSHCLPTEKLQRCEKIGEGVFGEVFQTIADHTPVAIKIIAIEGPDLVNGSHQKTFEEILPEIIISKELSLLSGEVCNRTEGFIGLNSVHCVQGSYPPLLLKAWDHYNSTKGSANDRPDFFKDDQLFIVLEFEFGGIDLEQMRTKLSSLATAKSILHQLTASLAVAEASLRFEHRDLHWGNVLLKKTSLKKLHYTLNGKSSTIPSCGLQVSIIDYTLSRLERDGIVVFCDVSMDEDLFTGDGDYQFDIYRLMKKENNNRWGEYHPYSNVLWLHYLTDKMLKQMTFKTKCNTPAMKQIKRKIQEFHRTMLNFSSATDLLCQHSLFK
In words: Inhibition of recombinant human Haspin kinase domain (470 to 798 residues) expressed in bacteria using histone H3 (1 to 21) peptide as substrate incubated for 30 mins in presence of ATP by ADP-Glo kinase assay. In general terms: In ADP-Glo the light output rises with the ADP produced.

Experiment [3] has as its target T2, Serine/threonine-protein kinase pim-1 (Homo sapiens, UniProt P11309). In words: Inhibition of human recombinant PIM-1 expressed in bacteria assessed as enzyme residual activity using histone H1 as substrate at 1 uM incubated for 30 mins in presence of ATP by ADP-Glo kinase assay.
Target sequence in this assay (P11309 whole entry, looked up): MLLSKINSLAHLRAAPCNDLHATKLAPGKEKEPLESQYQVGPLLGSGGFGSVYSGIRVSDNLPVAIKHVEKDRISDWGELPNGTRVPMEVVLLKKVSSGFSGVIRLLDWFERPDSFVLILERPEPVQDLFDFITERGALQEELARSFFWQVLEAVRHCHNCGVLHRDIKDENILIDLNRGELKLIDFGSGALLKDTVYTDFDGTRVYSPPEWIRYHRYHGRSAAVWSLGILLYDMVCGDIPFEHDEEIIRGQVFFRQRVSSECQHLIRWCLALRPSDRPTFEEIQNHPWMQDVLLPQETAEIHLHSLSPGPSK
For experiment [4], the target named is Glycogen synthase kinase-3 beta (Homo sapiens) (UniProt P49841). In words: Inhibition of human recombinant GSK-3 beta expressed in baculovirus-infected Sf9 cells assessed as enzyme residual activity using YRRAAVPPSPSLSRHSSPHQSpEDEEE as substrate at 10 uM incubated for 30 mins in presence of ATP by ADP-Glo kinase assay.
For experiment [5] the target is unchanged. Kind of experiment: Inhibition of human recombinant GSK-3 beta expressed in baculovirus-infected Sf9 cells assessed as enzyme residual activity using YRRAAVPPSPSLSRHSSPHQSpEDEEE as substrate at 1 uM incubated for 30 mins in presence of ATP by ADP-Glo kinase assay.
In experiment [6] the target is T3, CDK9/cyclin T1 (Homo sapiens) (UniProt O60563+P50750). In words: Inhibition of human recombinant CDK9/cyclin T expressed in baculovirus-infected Sf9 cells assessed as enzyme residual activity using YSPTSPSYSPTSPSYSPTSPSKKKK as substrate at 10 uM incubated for 30 mins in presence of ATP by ADP-Glo kinase assay.
In a further experiment the test system is HBL-100. Kind of experiment: cells. As to conditions: Homo sapiens, HBL-100, 48 h.
Experiment [7] deals with Dual specificity protein kinase CLK1 (Mus musculus) (UniProt P22518). Kind of experiment: Inhibition of recombinant mouse CLK1 expressed in bacteria assessed as enzyme residual activity using GRSRSRSRSRSR as substrate at 10 uM incubated for 30 mins in presence of ATP by ADP-Glo kinase assay.
Experiment [8] has as its target Dual specificity tyrosine-phosphorylation-regulated kinase 1A (Rattus norvegicus) (UniProt Q63470). Kind of experiment: Inhibition of recombinant rat DYRK1A kinase domain (1 to 499 residues) expressed in bacteria assessed as enzyme residual activity using KKISGRLSPIMTEQ as substrate at 10 uM incubated for 30 mins in presence of ATP by ADP-Glo kinase assay.
Experiment [9] has the same target. In words: Inhibition of recombinant rat DYRK1A kinase domain (1 to 499 residues) expressed in bacteria assessed as enzyme residual activity using KKISGRLSPIMTEQ as substrate at 1 uM incubated for 30 mins in presence of ATP by ADP-Glo kinase assay.
For experiment [10], the target named is T2, Serine/threonine-protein kinase pim-1. Kind of experiment: Inhibition of human recombinant PIM-1 expressed in bacteria assessed as enzyme residual activity using histone H1 as substrate at 10 uM incubated for 30 mins in presence of ATP by ADP-Glo kinase assay.
Target sequence in this assay (P11309 whole entry, looked up): as the sequence (P11309 whole entry, looked up) above
For a further experiment, the system named is TERT-RPE1. In words: cells. The following applies: Homo sapiens, RPE-1, 48 h.
Experiment [11] has as its target Casein kinase I isoform epsilon (Homo sapiens) (UniProt P49674). Kind of experiment: Inhibition of human recombinant CK1 epsilon expressed in baculovirus-infected Sf9 cells assessed as enzyme residual activity using RRKHAAIGSpAYSITA as substrate at 1 uM incubated for 30 mins in presence of ATP by ADP-Glo kinase assay.
For experiment [12], the target named is T2, Serine/threonine-protein kinase pim-1. In words: Inhibition of human recombinant PIM-1 expressed in bacteria using histone H1 as substrate incubated for 30 mins in presence of ATP by ADP-Glo kinase assay.
Target sequence in this assay (P11309 whole entry): as the sequence (P11309 whole entry, looked up) above
The next experiment deals with U2OS. In words: cells. The following applies: Homo sapiens, 48 h.
The next experiment deals with SH-SY5Y. In words: cells. The following applies: Homo sapiens, 48 h.
Experiment [13] deals with T3, CDK9/cyclin T1 (Homo sapiens). Kind of experiment: Inhibition of human recombinant CDK9/cyclin T expressed in baculovirus-infected Sf9 cells assessed as enzyme residual activity using YSPTSPSYSPTSPSYSPTSPSKKKK as substrate at 1 uM incubated for 30 mins in presence of ATP by ADP-Glo kinase assay.
Experiment [14] has as its target T4, Cyclin-dependent kinase 5/CDK5 activator 1 (Homo sapiens) (UniProt Q00535+Q15078). Kind of experiment: Inhibition of human recombinant CDK5/p25 expressed in bacteria assessed as enzyme residual activity using histone H1 as substrate at 10 uM incubated for 30 mins in presence of ATP by ADP-Glo kinase assay.
Experiment [15] has as its target Casein kinase I isoform epsilon (Homo sapiens) (UniProt P49674). Kind of experiment: Inhibition of human recombinant CK1 epsilon expressed in baculovirus-infected Sf9 cells assessed as enzyme residual activity using RRKHAAIGSpAYSITA as substrate at 10 uM incubated for 30 mins in presence of ATP by ADP-Glo kinase assay.
The target of experiment [16] is Dual specificity tyrosine-phosphorylation-regulated kinase 1A (Rattus norvegicus, UniProt Q63470). Kind of experiment: Inhibition of recombinant rat DYRK1A kinase domain (1 to 499 residues) expressed in bacteria using KKISGRLSPIMTEQ as substrate incubated for 30 mins in presence of ATP by ADP-Glo kinase assay.
Experiment [17] can be described thus: Selectivity index, ratio of IC50 for recombinant mouse CLK1 expressed in bacteria to IC50 for recombinant human Haspin kinase domain (470 to 798 residues) expressed in bacteria.
For experiment [18], the target named is T4, Cyclin-dependent kinase 5/CDK5 activator 1 (Homo sapiens). Kind of experiment: Inhibition of human recombinant CDK5/p25 expressed in bacteria assessed as enzyme residual activity using histone H1 as substrate at 1 uM incubated for 30 mins in presence of ATP by ADP-Glo kinase assay.
Another experiment has as its target CDK9/cyclin T1 (Homo sapiens, UniProt P50750). Kind of experiment: Inhibition of human recombinant CDK9/cyclin T expressed in baculovirus-infected Sf9 cells using YSPTSPSYSPTSPSYSPTSPSKKKK as substrate incubated for 30 mins in presence of ATP by ADP-Glo kinase assay.
Experiment [19] addresses Dual specificity protein kinase CLK1 (Mus musculus, UniProt P22518). In words: Inhibition of recombinant mouse CLK1 expressed in bacteria using GRSRSRSRSRSR as substrate incubated for 30 mins in presence of ATP by ADP-Glo kinase assay.

T4 sequence (Q00535 whole entry, canonical isoform): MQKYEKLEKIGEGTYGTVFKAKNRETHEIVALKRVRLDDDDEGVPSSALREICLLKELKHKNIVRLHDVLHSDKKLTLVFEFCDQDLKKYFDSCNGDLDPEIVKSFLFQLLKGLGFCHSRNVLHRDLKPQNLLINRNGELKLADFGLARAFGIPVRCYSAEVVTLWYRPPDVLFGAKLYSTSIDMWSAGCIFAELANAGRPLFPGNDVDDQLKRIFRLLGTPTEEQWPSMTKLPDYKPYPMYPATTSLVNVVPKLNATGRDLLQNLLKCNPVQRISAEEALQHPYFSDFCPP
T4 sequence (Q15078 99-307 partner limits assumed): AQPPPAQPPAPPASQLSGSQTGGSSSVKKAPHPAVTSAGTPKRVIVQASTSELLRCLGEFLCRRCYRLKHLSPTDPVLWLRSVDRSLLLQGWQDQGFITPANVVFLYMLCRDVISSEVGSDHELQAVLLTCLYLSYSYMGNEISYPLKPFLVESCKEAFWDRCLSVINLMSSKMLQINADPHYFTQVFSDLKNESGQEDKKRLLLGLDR
Chain of Glycogen synthase kinase-3 beta (Homo sapiens) (P49841 whole entry, looked up): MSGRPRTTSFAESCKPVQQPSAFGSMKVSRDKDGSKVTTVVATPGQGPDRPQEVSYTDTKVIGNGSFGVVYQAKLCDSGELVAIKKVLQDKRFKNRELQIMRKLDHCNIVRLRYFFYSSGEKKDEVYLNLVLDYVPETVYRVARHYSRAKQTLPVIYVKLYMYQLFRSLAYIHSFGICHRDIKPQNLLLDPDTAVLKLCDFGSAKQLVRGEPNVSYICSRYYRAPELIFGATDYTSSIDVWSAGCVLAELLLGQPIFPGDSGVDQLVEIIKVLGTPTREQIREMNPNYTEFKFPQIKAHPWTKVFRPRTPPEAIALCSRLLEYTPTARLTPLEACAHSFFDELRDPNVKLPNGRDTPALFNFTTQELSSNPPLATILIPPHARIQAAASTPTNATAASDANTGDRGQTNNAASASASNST
Chain of Casein kinase I isoform epsilon (Homo sapiens) (P49674 whole entry, looked up, the tested form may be a part, canonical isoform): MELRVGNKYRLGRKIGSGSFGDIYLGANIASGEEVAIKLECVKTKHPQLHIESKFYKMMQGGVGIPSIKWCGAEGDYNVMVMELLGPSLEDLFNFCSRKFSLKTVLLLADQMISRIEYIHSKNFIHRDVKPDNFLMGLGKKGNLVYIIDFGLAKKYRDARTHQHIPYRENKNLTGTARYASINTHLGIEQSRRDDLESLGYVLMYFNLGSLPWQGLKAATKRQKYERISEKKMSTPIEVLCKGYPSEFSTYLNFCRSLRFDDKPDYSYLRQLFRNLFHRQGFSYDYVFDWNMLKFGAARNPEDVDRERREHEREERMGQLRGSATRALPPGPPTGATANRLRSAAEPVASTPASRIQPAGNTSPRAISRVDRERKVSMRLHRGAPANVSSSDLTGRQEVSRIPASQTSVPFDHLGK
Chain of Dual specificity protein kinase CLK1 (Mus musculus) (P22518 whole entry, looked up, the tested form may be a part): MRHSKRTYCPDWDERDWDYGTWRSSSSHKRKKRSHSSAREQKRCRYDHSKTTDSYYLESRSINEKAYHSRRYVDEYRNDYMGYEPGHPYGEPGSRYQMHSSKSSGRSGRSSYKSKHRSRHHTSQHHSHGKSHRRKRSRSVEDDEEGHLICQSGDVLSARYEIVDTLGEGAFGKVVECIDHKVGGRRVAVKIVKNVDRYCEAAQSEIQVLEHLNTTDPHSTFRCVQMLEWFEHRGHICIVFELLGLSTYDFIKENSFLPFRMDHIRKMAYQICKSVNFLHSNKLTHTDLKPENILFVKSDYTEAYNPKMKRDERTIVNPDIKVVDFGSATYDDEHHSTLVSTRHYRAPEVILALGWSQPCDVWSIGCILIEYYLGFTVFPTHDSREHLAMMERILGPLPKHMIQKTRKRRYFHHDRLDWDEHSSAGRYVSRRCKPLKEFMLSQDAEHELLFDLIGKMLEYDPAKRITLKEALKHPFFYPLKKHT
Chain of Dual specificity protein kinase CLK1 (P22518 whole entry): as the sequence (P22518 whole entry, looked up, the tested form may be a part) above
Chain of CDK9/cyclin T1 (O60563 whole entry): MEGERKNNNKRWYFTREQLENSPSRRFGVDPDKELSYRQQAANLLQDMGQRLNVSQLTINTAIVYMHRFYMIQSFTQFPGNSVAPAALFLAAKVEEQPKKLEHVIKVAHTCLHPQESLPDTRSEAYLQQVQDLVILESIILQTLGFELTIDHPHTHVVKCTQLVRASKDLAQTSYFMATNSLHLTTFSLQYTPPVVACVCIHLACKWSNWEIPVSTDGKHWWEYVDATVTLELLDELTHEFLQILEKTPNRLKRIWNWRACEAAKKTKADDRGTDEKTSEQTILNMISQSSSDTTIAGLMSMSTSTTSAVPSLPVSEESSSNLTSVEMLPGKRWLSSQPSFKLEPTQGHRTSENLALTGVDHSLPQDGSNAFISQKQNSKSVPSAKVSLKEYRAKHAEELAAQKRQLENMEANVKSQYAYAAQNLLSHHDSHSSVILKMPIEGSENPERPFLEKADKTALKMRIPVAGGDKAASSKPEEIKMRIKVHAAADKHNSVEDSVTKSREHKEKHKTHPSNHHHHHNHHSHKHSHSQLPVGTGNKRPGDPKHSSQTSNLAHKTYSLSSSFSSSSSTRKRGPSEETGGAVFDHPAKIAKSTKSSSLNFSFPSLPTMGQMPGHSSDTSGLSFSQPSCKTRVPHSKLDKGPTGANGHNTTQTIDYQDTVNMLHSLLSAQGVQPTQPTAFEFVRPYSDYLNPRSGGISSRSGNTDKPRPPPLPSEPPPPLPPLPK
Chain of CDK9/cyclin T1 (P50750 whole entry): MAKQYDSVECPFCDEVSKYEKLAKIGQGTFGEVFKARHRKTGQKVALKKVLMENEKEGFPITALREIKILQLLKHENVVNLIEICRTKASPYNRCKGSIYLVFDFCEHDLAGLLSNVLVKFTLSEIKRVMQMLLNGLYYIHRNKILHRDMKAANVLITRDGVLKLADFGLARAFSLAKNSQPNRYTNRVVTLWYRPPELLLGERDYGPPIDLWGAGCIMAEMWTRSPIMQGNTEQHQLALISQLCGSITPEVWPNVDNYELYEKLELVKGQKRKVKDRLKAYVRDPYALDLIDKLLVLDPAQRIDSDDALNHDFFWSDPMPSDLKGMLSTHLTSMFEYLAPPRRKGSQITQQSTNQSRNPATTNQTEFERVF
Description for HBL-100: Antiproliferative activity against human HBL-100 cells assessed as reduction in cell viability incubated for 48 hrs by MTS assay
Description for HCT-116: Antiproliferative activity against human HCT-116 cells assessed as reduction in cell viability incubated for 48 hrs by MTS assay
Description for SH-SY5Y: Antiproliferative activity against human SH-SY5Y cells assessed as reduction in cell viability incubated for 48 hrs by MTS assay
Description for TERT-RPE1: Cytotoxicity against human TERT-RPE1 cells assessed as reduction in cell viability incubated for 48 hrs by MTS assay
Description for U2OS: Antiproliferative activity against human U2OS cells assessed as reduction in cell viability incubated for 48 hrs by MTS assay

As a reminder, the EC50 is the concentration at which the effect is half-maximal. Read a low EC50 as an effect from little substance. What is called IC50 is the concentration at which inhibition is half-maximal. `Ic1c[nH]c2cc3cnccc3cc12`: the Activity came out at 69% in [1]; 50% in experiment [3]; 74% in experiment [4]; 77% in experiment [5]; 35% in experiment [6]; 27% in [7]. For the same molecule, the Activity in [8] was determined as 16%; in experiment [9], 50%; in [10] it was 23%; in experiment [11], 69%; in [13] it was 62%; in experiment [14] it was 100%. Further, the Activity in experiment [15] stood at 27%. For the same molecule, the EC50 in the experiment with HCT-116, in the experiment with HBL-100, with TERT-RPE1, in the experiment with U2OS and in the experiment on SH-SY5Y was greater than 50000 nM in each case. For the same molecule, the IC50 in experiment [2] was 114 nM; in [12] it was 675 nM; in experiment [16], 564 nM.

Consider `ON=Cc1c[nH]c2cc3cnccc3cc12`, for which the Activity in [1] was 15%; in experiment [3], 43%; in [4], 27%; in experiment [5], 80%; in [6], 2%; in experiment [18] it was 51%. The Activity is 1% in experiment [8]; 9% in experiment [9]; 11% in experiment [10]; 89% in [11]; 13% in [13]; 32% in [14]. In [15], the Activity was 46%. For the same molecule, the IC50 in experiment [2] came to 130 nM; on CDK9/cyclin T1, 222 nM; in experiment [19] it was 139 nM; in experiment [16], 290 nM. The Ratio IC50 in experiment [17] is 1.1.

Take `Brc1c[nH]c2cc3cnccc3cc12`: the Activity was found to be 72% in experiment [1]; 48% in experiment [3]; 62% in [4]; 89% in experiment [5]; 27% in [6]; 32% in experiment [7]. In addition, the Activity in experiment [18] was found to be 100%; in [8], 11%; in [9], 36%; in [10], 24%; in [11], 100%; in experiment [13], 39%. The Activity was determined as 48% in experiment [14] and 77% in experiment [15]. Further, the EC50 in the experiment with HCT-116, with HBL-100, in the experiment on TERT-RPE1, in the experiment on U2OS and with SH-SY5Y was greater than 50000 nM throughout. The IC50 in experiment [2] was 150 nM; on CDK9/cyclin T1 it was 999 nM; in experiment [12], 804 nM; in experiment [16], 916 nM.

Regarding `c1cc2cc3c(-c4cncnc4)c[nH]c3cc2cn1`, the Activity in experiment [1] was 54%; in experiment [3] it was 63%; in experiment [4] it was 59%; in [5], 68%; in [6], 43%; in experiment [7], 14%. Also, the Activity in experiment [18] amounted to 100%; in experiment [8], 20%; in experiment [9], 51%; in experiment [10], 33%; in experiment [11], 81%; in experiment [13], 79%. The Activity in [14] was found to be 72%; in [15], 43%. Also, the IC50 in [2] amounted to 249 nM.

As for `Cn1ccc2cc3ccncc3cc21`, the Activity in experiment [1] amounted to 92%; in experiment [3], 67%; in experiment [4], 83%; in experiment [5] it was 100%; in experiment [6], 60%; in experiment [7] it was 58%. The Activity in [18] came to 53%; in experiment [8] it was 29%; in experiment [9], 67%; in experiment [10], 35%; in [11], 92%; in experiment [13], 89%. The figures for the Activity in experiment [14] and in experiment [15] were 38% and 85%, respectively. Also, the concentration for half-maximal inhibition (IC50) in [2] is roughly 1000 nM.

Consider `Cn1cc(I)c2cc3ccncc3cc21`, for which the Activity in experiment [1] turned out to be 61%; in experiment [3], 48%; in [4], 60%; in [5], 81%; in [6], 26%; in experiment [7], 22%. Moreover, the Activity in experiment [18] came to 95%; in [8], 14%; in experiment [9], 46%; in experiment [10], 26%; in experiment [11], 100%; in [13], 57%. For the same molecule, the Activity came out at 22% in [14] and 72% in experiment [15]. Besides, the IC50 in experiment [2] is 243 nM.

On to `CC(=O)c1c[nH]c2cc3cnccc3cc12`, for which the Activity turned out to be 21% in experiment [1]; 80% in experiment [3]; 27% in [4]; 69% in experiment [5]; 20% in experiment [6]; 10% in experiment [7]. Further, the Activity in experiment [18] came out at 31%; in experiment [8], 0%; in [9], 25%; in [10], 27%; in experiment [11] it was 98%; in experiment [13], 34%. In addition, the Activity in [14] came to 13%; in experiment [15] it was 62%. Also, the concentration for half-maximal inhibition (IC50) in [2] stood at 157 nM; in experiment [19], 265 nM; in experiment [16] it was 860 nM. Also, the Ratio IC50 in experiment [17] was 1.7.
